In the test the test system is MPT21 (SEQ ID NO: 22; chimera of MPT1 and MPT4) as fusion GPS1.1-F11-MPT21 (SEQ ID NO: 25), expressed in Yarrowia. Briefly: In vitro activity assay with microsomes of GPS1.1-F11-MPT21. Format: biochemical. Particulars: microsomes from Yarrowia sCL-SE-0128 + pCL-SE-0664; varying concentrations of OA and DVA; enzyme not purified to homogeneity. The method, then:
Yarrowia cells sCL-SE-0128 expressing the fusion of GPS1.1 with MPT4 (pCL-SE-0406) and MPT21 (pCL-SE-0664) were grown at 30 mL culture at 30 C for 2 days in YNB with 20% glucose. The cells were collected by centrifugation, washed with homogenization buffer (MAK340-1KT Sigma Aldrich) and were resuspended in 2 mL of homogenization buffer. The suspended cells were transferred to 5 mL tubes containing 1 mL of glass beads and were homogenized by shaking for 5 min at max speed in a shaker (Retsch MM400). The lysed cells were transferred to new tubes and microsomes were prepared as described in the kit (MAK340-1KT). Activity assays were performed using microsomes from both enzymes and varying concentrations of OA and DVA.

The structures appear in SMILES notation.

For `CCCc1cc(O)cc(O)c1C(=O)O` [DVA, divarinic acid], the Michaelis constant (Km) – broadly, the substrate concentration at which the rate is half of its maximum – was 62.2 µM.

Regarding `CCCCCc1cc(O)cc(O)c1C(=O)O` [OA, olivetolic acid], the Km is 20.9 µM.

The record behind these values is patent US20240228986A1, “ENGINEERED CELLS, ENZYMES, AND METHODS FOR PRODUCING CANNABINOIDS” (priority 2021, published 2024).
